Measured values published in patent publication US10538561B2, “Peptide for treating inflammatory diseases” (priority 2015, dated 2020).
Values belong to the compound of their own block, whether it stands above or below them.

Tests used:
IL-17 = IL-17 secretion in ConA stimulated splenocytes; format: cell-based, mouse; details: splenocytes + ConA, 24 h
Description: (§1) Cell lines: mouse splenocytes; test item: IS181; treatment regimen: single addition—24 hours; concentration range: 10 μg/ml-5000 μg/ml.A) Identification of non-cytotoxic concentrations: splenocytes were treated with IS181 for 24 hours. Effect on cell viability was assessed by MTT assay. Concentrations leading to >75% cell viability were selected for IL-17 assay. B) IL-17 assay: splenocytes were treated with IS181 in presence of ConA stimulation for 24 hours. Supernatants were collected and stored at −20° C. till analysed. Levels of IL-17 were analysed in supernatants by ELISA. Percent inhibition of IL-17 secretion was calculated with reference to ConA treated levels. Positive control: curcumin.

IL-23 = IL-23 secretion in LPS+IFN-γ stimulated THP-1; format: cell-based, Human; details: THP-1 + LPS + IFN-γ, 24 h
Description: (§2) Cell lines: Human monocytic cell line (THP-1); test item: IS181: treatment regimen; single addition—24 hours; concentration range: 10 μg/ml-5000 μg/ml. A) Identification of non-cytotoxic concentrations: THP-1 cells were treated with IS181 for 24 hours; effect on cell viability was assessed by MTT assay; concentrations leading to >75% cell viability were selected for IL-23 assay. […] Positive control: curcumin. […] Since supernatants corresponding to 5 concentrations were to be tested for […], we also tested 1 mg/ml.

[1] = Cell viability of splenocytes (MTT); format: cell-based, mouse; details: mouse
Description: as §1

[2] = test system: Human Keratinocytes (HaCaT); assay: Annexin-V assay; format: cell-based; details: 10 μM-50 μM
Description: Cell lines: Human Keratinocytes (HaCaT); test Item (TI): IS181; Treatment regimen: treated twice (once after 24 hours)-48 hours; concentration range: 100 6 g/ml-5000 6 g/ml. […] (c) cells were treated with IS181 for 24 hours; (d) after 24 hours, cells were again treated with IS181 for 24 hours; (e) after 48 hours of first treatment, cells were stained with Annexin-V reagent and acquired on flow cytometer; (f) fold increase in apoptotic cells (early and late apoptotic) and necrotic cells was calculated with respect to untreated control cells. Positive control: Curcumin. […] (FIG. 4)

[3] = Cell viability of THP-1 (MTT); format: cell-based, Human; details: human
Description: as §2

VEGF = VEGF inhibition in keratinocytes (ELISA); format: cell-based, Human; details: HaCaT
Description: Cell lines: Human Keratinocytes (HaCaT); test item: IS181; treatment regimen: single addition—24 hours; concentration range: 0.1 μg/ml-100 μg/ml. […] Cells were serum-starved for another 24 hours (0% FBS). Cells were treated with IS181 for 24 hours. Supernatants were collected and stored at −20° C. till analysed. Levels of VEGF were analysed in supernatants by ELISA. Percent inhibition of VEGF secretion was calculated with reference to untreated levels. Positive control: curcumin; retinoic acid (at non-cytotoxic concentrations).

[4] = test system: Human endothelial cells (EA.hy 926); assay: Inhibition of FBS stimulated endothelial cell proliferation (MTT); format: cell-based
Description: Cell line: Human endothelial cells (EA.hy 926); test item: IS 181: treatment regimen: multiple additions (3)-72 hours; concentration range: 1 6 g/ml to 5000 6 g/ml (triplicate wells); sera condition: medium containing 10% FBS. […] The cells were then subjected to complete serum starvation. The cells were retreated with 10% FBS to stimulate cellular proliferation. […] Inhibition of FBS stimulated cell proliferation was measured using MTT assay. End point: percentage inhibition of FBS stimulated cell proliferation. Positive controls: anthralin; paclitaxel.

[5] = test system: Human endothelial cells (EA.hy 926); assay: Inhibition of endothelial cell migration (wound); format: cell-based; details: Homo sapiens, EA.hy 926; EA.hy926, 14 h, 10 nM; read-out: % Inhibition of migration with respect to respective 0 h control
Description: Cell line: Human endothelial cells (EA.hy 926); test item: IS 181; treatment regimen: single addition; concentration range: 0.1 μg/ml-1 mg/ml; sera condition: medium containing 10% FBS. […] The cells were then subjected to serum starved with medium containing 1% FBS for 24 hours. 24 hours post serum starvation, the wounds (straight line) were created in the middle of the well using a sterile 200 μl pipette tip. Cells were washed twice using DMEM followed by treatment with different concentrations of IS 181 in DMEM containing 10% FBS. Images of wound were taken at 0 h and 14 h at three points in single well and distance of wound closure was measured using Image J software. End point: image analysis of cell migration of different concentrations of IS 181 treated cells at 0 hour and after 14 hours of treatment. Percentage inhibition in cell migration of different concentrations of IS 181 treated cells were calculated after 14 h of treatment with respect to respective 0 hours (FIG. 13). […] (FIGS. 14A-14B).

[6] = test system: HaCaT (Human keratinocyte) cell line; assay: Mitochondrial membrane potential by JC-1 assay; format: cell-based
Description: (§3) For testing Apoptosis the Human Keratinocytes (HaCaT) cell line has been employed. The growth conditions are DMEM containing 1% FBS. […] Test concentration range is IS181 is tested at the highest (Qualitative analysis) effective concentrations selected on the basis of Quantitative JC-1 assay. The method of estimation is Mitochondrial membrane depolarization by JC-1 assay (Early apoptosis), LDH enzyme release (Necrosis). Treatment regimen & time points are JC-1 assay—Single addition, 20 h; LDH assay—Single addition, 24 h; Positive control: Triton-X-100, Doxorubicin-hydrochloride
Quantitative effect on Δψm (Red fluorescence/Green fluorescence) in HaCaT cells post 20 hours of treatment. […] Evaluation (Qualitative and quantitative) of differential JC-1 staining in treated cells after 20 h on incubation with the test peptides.

[7] = test system: Human melanoma (SK-MEL-28); assay: Cell viability (MTT assay) in SK-MEL-28; format: cell-based
Description: (§4) Cell Lines/Cells: Human Keratinocytes (HaCaT); Human melanoma (SK-MEL-28); Human PBMCs. Test Item: IS181 Treatment regimen: Single addition—24 h, ^#Multiple additions (3)−72 h; Concentration range: 1 ng/ml-2 mg/ml (triplicate wells); Sera Condition: […] Method of estimation: MTT assay. […] Positive control: Triton-X-100, Doxorubicin Hydrochloride.

Human PBMCs = assay: Cell viability (MTT assay) in PBMCs; format: cell-based
Description: as §4

[8] = test system: HaCaT (Human keratinocyte); assay: LDH enzyme release assay; format: cell-based
Description: as §3
End-point: Percentage increase in LDH activity in treated cells with respect to untreated.

Compound: COc1cc(/C=C/C(=O)CC(=O)/C=C/c2ccc(O)c(OC)c2)ccc1O [Curcumin, reference compound]
inhibition at 1 µM (IL-17; Mus musculus, Splenocyte, 1 μM, read-out: % Inhibition of IL-17 wrt Control (ConA)): 40.5%
inhibition at 10 µM (IL-17; Mus musculus, Splenocyte, 10 μM, read-out: % Inhibition of IL-17 wrt Control (ConA)): 42.5%
Conc. of IL-17 (IL-17; 1 μM): 27.7 pg/mL
Conc. of IL-17 (IL-17; 10 μM): 26.7 pg/mL
inhibition at 1 µM (IL-23; Homo sapiens, 1 μM, read-out: % Inhibition of IL-23 wrt Control (LPS + IFN-γ)): 91.6%
inhibition at 10 µM (IL-23; Homo sapiens, 10 μM, read-out: % Inhibition of IL-23 wrt Control (LPS + IFN-γ)): 90.6%
Conc. of IL-23 (IL-23; 1 μM): 7.1 pg/mL
Conc. of IL-23 (IL-23; 10 μM): 7.9 pg/mL
viability at 24 h [1]: > 75%
viability at 24 h, 1 µM [1]: 97.5%
viability at 24 h, 10 µM [1]: 82%
viability at 24 h, 20 µM [1]: 40.4%
increase in early apoptotic cells [2]: 12.8-152.5 fold
increase in late apoptotic cells [2]: 2.4-138.4 fold
viability at 24 h, 1 µM [3]: 94.7%
viability at 24 h, 10 µM [3]: 103%
viability at 24 h, 20 µM [3]: 107%
VEGF inhibition (VEGF; 20 uM): did not result in any VEGF inhibition
Conc. of VEGF (VEGF; 24 h, 1 μM): 3059.1 pg/mL
inhibition at 1 µM (VEGF; Homo sapiens, 24 h, 1 μM, read-out: % Inhibition of VEGF wrt untreated (basal) levels): 14.9%

Compound: CC(=O)O[C@H]1C(=O)[C@@]2(C)[C@H]([C@H](OC(=O)c3ccccc3)[C@]3(O)C[C@H](OC(=O)[C@H](O)[C@@H](NC(=O)c4ccccc4)c4ccccc4)C(C)=C1C3(C)C)[C@]1(OC(C)=O)CO[C@@H]1C[C@@H]2O [Paclitaxel]
Absorbance (Mean ± SD) at 540 nm ([4]; EA.hy926, 10 nM): 0.36 ± 0.012
Absorbance (Mean ± SD) at 540 nm ([4]; EA.hy926, 50 nM): 0.23 ± 0.008
Absorbance (Mean ± SD) at 540 nm ([4]; EA.hy926, 100 nM): 0.19 ± 0.006
Absorbance (Mean ± SD) at 540 nm ([4]; EA.hy926, 500 nM): 0.16 ± 0.003
Absorbance (Mean ± SD) at 540 nm ([4]; EA.hy926, 1000 nM): 0.06 ± 0.001
inhibition at 0.01 µM ([4]; Homo sapiens, EA.hy 926, EA.hy926, 10 nM, read-out: ¾ Inhibition of FBS stimulated cell growth): 27.6%
inhibition at 0.05 µM ([4]; Homo sapiens, EA.hy 926, EA.hy926, 50 nM, read-out: ¾ Inhibition of FBS stimulated cell growth): 58.9%
inhibition at 0.1 µM ([4]; Homo sapiens, EA.hy 926, EA.hy926, 100 nM, read-out: ¾ Inhibition of FBS stimulated cell growth): 62.7%
inhibition at 0.5 µM ([4]; Homo sapiens, EA.hy 926, EA.hy926, 500 nM, read-out: ¾ Inhibition of FBS stimulated cell growth): 70.1%
inhibition at 1 µM ([4]; Homo sapiens, EA.hy 926, EA.hy926, 1000 nM, read-out: ¾ Inhibition of FBS stimulated cell growth): 89.4%
inhibition at 0.01 µM [5]: 71%

% Increase with respect to untreated (LDH) ([8]; 0.01%): −30.27%
LDH Activity (mU/ml) ([8]; 0.01%): 44.11 mU/ml
% Increase with respect to untreated (LDH) ([8]; 0.1%): ***95.84%
LDH Activity (mU/ml) ([8]; 0.1%): 123.88 mU/ml
Compound: Triton X-100 [reference compound]
Green fluorescence intensity (RFU) ([6]; 0.01%): 20.5 ± 17.68 RFU
Red fluorescence intensity (RFU) ([6]; 0.01%): 33.25 ± 32.17 RFU
Red fluorescence intensity/Green fluorescence intensity ([6]; 0.01%): *1.62
Green fluorescence intensity (RFU) ([6]; 0.1%): 22.33 RFU
Red fluorescence intensity (RFU) ([6]; 0.1%): 16.33 RFU
Red fluorescence intensity/Green fluorescence intensity ([6]; 0.1%): *0.73
cytotoxicity [7]: > 90%
cytotoxicity (Human PBMCs): 70% to 77%
